Reference: the supplement of paper PMC4858399
Counter-ions that a name gives are not always drawn.

Tests used:
Settings in all cases: exposure time 48 h
[1] = tested on: Caenorhabditis elegans N2; test: AC50 for larval growth inhibition (Hill fit); higher = less potent
How it was run: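 AC50 values come from a constrained Hill fit by weighted genetic-algorithm regression and are censored when out of range. The fit used only wells with at least 10 worms. Each well of a 96-well plate held 50 synchronised C. elegans N2 L1 larvae in K-medium with killed OP50, 1% DMSO and 0.5–200 µM chemical for 48 h at 20°C. A COPAS Biosort recorded each worm's size as extinction, which was log-transformed and averaged per well.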

[2] = tested on: Caenorhabditis elegans N2; test: lowest effective concentration for larval growth inhibition (size below effect threshold); higher = less potent
How it was run: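 Log-transformed well means of per-worm extinction, read as size on a Biosort, came from 50 C. elegans N2 L1 larvae per 96-well grown 48 h at 20°C in K-medium with killed bacteria, 1% DMSO and 0.5 to 200 µM chemical. The lowest effective concentration is the first dose at which the plate-adjusted mean size is below the threshold and stays below it at every higher dose. The threshold is 5.665.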

[3] = tested on: Caenorhabditis elegans N2; test: mean nematode size ln(EXT) after 48 h, plate-adjusted (DMSO control set to 6) (ln(EXT), control-adjusted); higher = larger nematodes / less growth inhibition
How it was run: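 Chemical at 0.5–200 µM was tested on synchronised C. elegans N2 L1 larvae grown for 48 h at 20°C in K-medium with killed OP50 and 1% DMSO. Per-worm Biosort extinction, cleared of debris by a growth model, was natural-logged and averaged per well to give mean size. Plates were normalised by subtracting the vehicle control mean and adding 6.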

| SMILES | AC50 for larval growth inhibition [1] | lowest effective concentration [2] | mean nematode size ln(EXT) (ln) ([3]; 0.5 µM) | mean nematode size ln(EXT) (ln) ([3]; 1 µM) | mean nematode size ln(EXT) (ln) ([3]; 5 µM) | mean nematode size ln(EXT) (ln) ([3]; 10 µM) | mean nematode size ln(EXT) (ln) ([3]; 50 µM) | mean nematode size ln(EXT) (ln) ([3]; 100 µM) | mean nematode size ln(EXT) (ln) ([3]; 200 µM) |
| --- | --- | --- | --- | --- | --- | --- | --- | --- | --- |
| Clc1ccc(Cl)cc1 [1,4-Dichlorobenzene] | > 200 µM | 200 µM | 5.89 | 5.93 | 5.94 | 5.84 | 5.84 | 5.73 | 5.58 |
| O=C(Nc1ccc(Cl)cc1)Nc1ccc(Cl)c(Cl)c1 [3,4,4'-Trichlorocarbanilide] | 0.964 µM | ≤ 0.5 µM | 5.51 | 4.97 | 4.28 | 4.21 | 4.26 | 4.1 | 3.81 |
| O=C1c2c(O)cccc2Cc2cccc(O)c21 [Dithranol] | 189 µM | 200 µM | 5.83 | 5.82 | 5.81 | 5.77 | 5.67 | 5.74 | 4.35 |
| COC(=O)Nc1nc2ccccc2[nH]1 [methyl 1H-benzimidazol-2-ylcarbamate] | 6.43 µM | 5 µM | 5.81 | 5.7 | 5.32 | 5.32 | 5.06 | 4.58 | 4.89 |
| CCCCC(O)(Cn1cncn1)c1ccc(Cl)cc1Cl (stereo not drawn) [Hexaconazole] | 84.2 µM | 100 µM | 5.86 | 5.78 | 5.71 | 5.99 | 5.81 | 4.65 | 4.09 |
| CCC(C)(C)C(=O)OC1=C(c2ccc(Cl)cc2Cl)C(=O)OC12CCCCC2 [Spirodiclofen] | 24 µM | 50 µM | 5.74 | 5.86 | 5.7 | 5.73 | 4.53 | 4.72 | 4.25 |
| CCCCNC(=O)OCC#CI [3-Iodo-2-propynylbutylcarbamate] | 101 µM | 100 µM | 6.05 | 5.98 | 6.06 | 6.03 | 5.84 | 4.8 | 3.17 |
| O=C(O)[C@@H]1[C@H](C(=O)O)[C@H]2CC[C@@H]1O2 [Endothal] | > 200 µM | 200 µM | 5.86 | 5.85 | 5.91 | 5.82 | 5.56 | 5.71 | 5.15 |
| C1=Cc2cccc3cccc1c23 [Acenaphthylene] | > 200 µM | 200 µM | 5.93 | 5.96 | 5.94 | 5.98 | 5.92 | 5.83 | 5.37 |
| CCC(C)(C)C(=O)O[C@H]1C[C@@H](C)C=C2C=C[C@H](C)[C@H](CC[C@@H]3C[C@@H](O)CC(=O)O3)[C@H]21 [Simvastatin] | > 200 µM | 100 µM | 5.79 | 5.93 | 6 | 5.84 | 5.7 | 5.39 | 4.67 |
| CCCCCCCCCCCCCCCO [1-Pentadecanol] | > 200 µM | 50 µM | 5.76 | 5.96 | 5.83 | 5.8 | 5.59 | 5.49 | 5.3 |
| CCN(CC)CCNc1ccc(CNC=O)c2sc3ccc(OC)cc3c(=O)c12 | 107 µM | 10 µM | 5.89 | 5.87 | 5.75 | 5.65 | 5.25 | 4.73 | 3.81 |
| CCOP(=S)(OCC)Oc1ccc([N+](=O)[O-])cc1 [Parathion] | 13.4 µM | ≤ 0.5 µM | 5.59 | 5.66 | 5.54 | 5.03 | 3.46 | 3.63 | 3.36 |
| C[C@@H]1[C@@H](c2ccc(Cl)cc2)SC(=O)N1C(=O)NC1CCCCC1 [Hexythiazox] | 122 µM | 100 µM | 6.07 | 5.94 | 5.91 | 5.99 | 5.68 | 5.34 | 3.24 |
| NS(=O)(=O)C(F)(F)C(F)(F)C(F)(F)C(F)(F)C(F)(F)C(F)(F)C(F)(F)C(F)(F)F [Perfluorooctanesulfonamide] | 7.84 µM | 5 µM | 5.89 | 5.86 | 5.26 | 4.64 | 3.6 | 3.86 | 3.65 |
| O=C(Nc1ccccc1)c1ccccc1I [Benodanil] | 39.3 µM | 5 µM | 5.99 | 5.98 | 5.62 | 5.66 | 4.16 | 4.19 | 3.37 |
| O=C(NC(=O)c1cc(F)c(F)cc1Cl)Nc1cc(F)ccc1N1CCC(C(=O)O)CC1 | 91.3 µM | 200 µM | 5.94 | 5.9 | 5.94 | 5.9 | 5.93 | 5.73 | 5.57 |
| Cn1c(=O)c2nc[nH]c2n(C)c1=O [Theophylline] | > 200 µM | 200 µM | 5.97 | 5.97 | 5.98 | 6.02 | 5.84 | 5.9 | 5.59 |
| C/C=C/c1ccc(OC)cc1 [(E)-Anethole] | > 200 µM | 200 µM | 6.06 | 5.98 | 6.01 | 6.06 | 5.97 | 5.96 | 5.49 |
| O=C(O)C(F)(F)C(F)(F)C(F)(F)C(F)(F)C(F)(F)C(F)(F)C(F)(F)F [Perfluorooctanoic acid] | 60.2 µM | 100 µM | 6 | 6 | 5.94 | 6.02 | 5.75 | 5.24 | 5.31 |
| CN(C)[C@@H]1C(=O)C(C(N)=O)=C(O)[C@@]2(O)C(=O)C3=C(O)c4c(O)cccc4[C@@](C)(O)[C@H]3[C@H](O)[C@@H]12 [Oxytetracycline hydrochloride] | 81.4 µM | 100 µM | 5.99 | 5.96 | 5.95 | 6.01 | 5.9 | 5.64 | 5.48 |
| Cc1cc(CCN2CCN(c3nsc4ccccc34)CC2)cc2c1NC(=O)CC2(C)C | 41.3 µM | 5 µM | 5.77 | 5.72 | 5.61 | 5.4 | 4.49 | 4.01 | 3.55 |
